This is an account of results in the NIST ThermoML archive (doi:10.1016/j.jct.2009.06.014).

One may read the mass density as the mass of a sample divided by its volume.

The data set is described as follows: xn = mol fraction of the nth substance listed. The note with it: 101 kPa, Liquid, Vibrating tube method, x1 = 1.

Numbers after ± are expanded uncertainties.

With `O` [water] + C1CCOC1, the mass density is 988.02 ± 0.2 kg/m3 (323.15 K), 985.68 ± 0.21 kg/m3 (328.15 K) and 983.17 ± 0.21 kg/m3 (333.15 K).
